{
  "source": "patent US7208178B2",
  "about": "“Polymorphs of sodium 4-[(4-chloro-2-hydroxybenzoyl) amino] butanoate” (Emisphere Technologies, Inc., priority 2000, dated 2007)",
  "test": "Solid-state stability of amorphous form at ambient conditions",
  "format": "physicochemical",
  "settings": "amorphous form prepared by solidification, from solution or lyophilization",
  "data": [
    {"smiles": "O=C(O)CCCNC(=O)c1ccc(Cl)cc1O", "note": "[amorphous form, sodium 4-[(4-chloro-2-hydroxybenzoyl)amino]butanoate]", "values": [
      {"measurement": "stability at ambient conditions", "value": "unstable at ambient conditions and transforms to Form II"}
    ]}
  ]
}
